≈ marks a conversion by molar mass, not a printed value. Where two headings read alike, the source gives them in different places. Residues, ends and D or L forms follow the SMILES beside them.
How the values were obtained:
[1] = system: Fusarium culmorum (IMI 180420); assay: Antifungal growth inhibition microplate assay (photospectrometry); format: cell-based; conditions: ½ PDB; for IC50 / F CULMORUM IC50 / F CULMORUM IC: the source numbers peptides by N-terminal amino acid; for F CULMORUM IC50: Table 7 / FIG. 8: Rs-AFP1-based 12-mer split peptides; for F CULMORUM IC: Table 6 / FIG. 8: Rs-AFP1-based 9-mer split peptides
Procedure: (§1) The following fungal strains were used: Alternaria brassicicola (MUCL 20297), Ascophyta pisi (MUCL 30164), Botrytis cinerea (MUCL 30158), Fusarium culmorum (IMI 180420) and Verticillium dahliae (MUCL 19210).
(§2) Fungi were grown on six cereal agar plates at room temperature and under white fluorescent light except for F culmorum and V dahliae which were grown in the dark. The duration of the spore harvest varied between 10 and 25 days depending on the strain. Spores were collected as follows. Five to ten ml of sterile milli-Q water was poured into each dish and the surface of the agar was rubbed with a sterile spatula to obtain a suspension containing mycelium and spores. This suspension was filtered through a sterile glasswool-plugged funnel and the filtrate containing the spores was collected in a sterile polypropylene centrifuge tube. The A brassicicola spores were suspended in sterile 0.1 Tween 20 (Merk, 822184) due to their hydrophobic nature. The spore suspensions were then washed twice by centrifugation at 2,400×g for 15 minutes and resuspended in a small volume of steril milli-Q water. The spore density was determined in a counting chamber and then adjusted to 4×10^7 spores per ml. Aliquots of the spore suspension were transferred to sterile microtubes and an equal volume of sterile 50% glycerol (Merck, 4091) was added to each tube so that a final spore suspension of 2×10^7 spores per ml in 25% glycerol was obtained. After careful mixing of the stock, the spore suspension was transferred in 100 μl aliquots to sterile microtubes and stored at −80° C.
(§3) Antifungal activity was measured by photospectrometry as described by Broekaert et al, (1990, FEMS Microbiol Lett, 69:55-60). Tests were performed by adding 20 μl of test solution and 80 μl of a fungal spore suspension (2×10^4 spores/ml) per well in a sterile flat-bottom 96-well microtiterplate. The spore suspension was prepared by diluting the stock spore suspension ([…] in 25% glycerol) 1:1000 in half-strength potato dextrose broth. A positive growth control consisting of eight wells containing 20 μl of sterile milli-Q water and 80 μl of the fungal spore suspension was included in each test. The microtiterplates were incubated (with the lid on) in an aerated place at room temperature and under conditions of darkness for all test organisms.
(§4) After 30 minutes of incubation (when the spores are settled on the well bottom) the optical density was measured in a microplate reader (Bio Rad 3550-UV) at 595 nm. Incubation of the microtiterplates continued until the optical density of the control microculture was between 0.250 and 0.500, which took approximately 72 hours (96 hours for V dahliae). Percentage of growth inhibition (% GI) was estimated as 100 times the ratio of the corrected absorbance of the control microculture minus the corrected absorbance of the test microculture over the corrected absorbance of the control microculture at 595 nm. The corrected absorbance values equal the absorbance at 595 nm of the culture measured after 72 or 96 hours minus the absorbance at 595 nm measured after 30 minutes.
(§5) % GI=[(Acontrol−Atest/Acontrol]×100
(§6) where Acontrol=(A72/96h−A30min)control
(§7) The IC50 value is defined as the concentration that gives a 50% growth inhibition after 72 or 96 hours of incubation. The minimum inhibitory concentration (MIC) corresponds to the minimum concentration that gives 100% growth inhibition after 72 or 96 hours incubation.

[2] = system: Ascophyta pisi (MUCL 30164); format: cell-based; conditions: ½ PDB; for A PISI IC: the source numbers peptides by N-terminal amino acid
Procedure: as §1, §2, §3, §4, §5, §6, §7

[3] = Table 4 / FIG. 6: Rs-AFP2-based 12-mer split peptides
[4] = Table 4: Rs-AFP2-based 12-mer split peptides, triplicate
[5] = Table 7: Rs-AFP1-based 12-mer split peptides
[6] = Table 3 / FIG. 6: Rs-AFP2-based 9-mer split peptides
[7] = Table 3: Rs-AFP2-based 9-mer split peptides, duplicate
[8] = Table 6: Rs-AFP1-based 9-mer split peptides

114 (CIRLEKARHGSC; listed as Raphanus sativus) [compound 114]
IC50 [1, 3]: 74 µg/mL | MIC [1, 4]: 100 µg/mL | F CULMORUM IC50 [1]: 328 µg/mL | F CULMORUM MIC [1, 5]: 400 µg/mL | A PISI IC50 [2, 5]: 318 µg/mL | A PISI MIC [2, 5]: >400 µg/mL

Ac-KARHGSCNY-NH2 [compound 76]
IC50 [1, 6]: 162 µg/mL | MIC [1, 7]: 300 µg/mL | F CULMORUM IC [1]: 169 µg/mL | F CULMORUM MIC [1, 8]: 250 µg/mL | A PISI MIC [2, 8]: >400 µg/mL | A PISI IC [2, 8]: 342 µg/mL

Ac-RHGSCNYVF-NH2 [compound 78]
IC50 [1, 6]: 284 µg/mL | MIC [1, 7]: 400 µg/mL | F CULMORUM IC [1]: 69 µg/mL | F CULMORUM MIC [1, 8]: 100 µg/mL | A PISI MIC [2, 8]: 100 µg/mL | A PISI IC [2, 8]: 70 µg/mL

CC[C@H](C)[C@H](NC(=O)[C@H](CS)NC(=O)[C@H](CCCCN)NC(=O)[C@H](Cc1c[nH]cn1)NC(=O)[C@H](C)NC(=O)[C@@H]1CCCN1C(=O)[C@H](Cc1ccccc1)NC(=O)[C@@H](NC(C)=O)C(C)C)C(=O)N[C@@H](CS)C(=O)N[C@@H](Cc1ccc(O)cc1)C(=O)N[C@@H](Cc1ccccc1)C(=O)N1CCC[C@H]1C(N)=O [compound 128] (Ac-VFPAHKCICYFP-NH2)
IC50 [1, 3]: 344 µg/mL (≈ 235 µM) | MIC [1, 4]: >400 µg/mL | F CULMORUM IC50 [1]: 320 µg/mL | F CULMORUM MIC [1, 5]: >400 µg/mL | A PISI IC50 [2, 5]: 181 µg/mL | A PISI MIC [2, 5]: 400 µg/mL

CC[C@H](C)[C@H](NC(=O)[C@H](CS)NC(=O)[C@H](CCCCN)NC(=O)[C@H](Cc1c[nH]cn1)NC(C)=O)C(=O)N[C@@H](CS)C(=O)N[C@@H](Cc1ccc(O)cc1)C(=O)N[C@@H](Cc1ccccc1)C(=O)N1CCC[C@H]1C(=O)N[C@@H](CS)C(N)=O [compound 89] (Ac-HKCICYFPC-NH2)
F CULMORUM IC [1]: 233 µg/mL | A PISI IC [2, 8]: 70 µg/mL

Ac-EKARHGSCNYVF-NH2 [compound 118]
IC50 [1, 3]: 154 µg/mL | MIC [1, 4]: 200 µg/mL | F CULMORUM IC50 [1]: 63 µg/mL | F CULMORUM MIC [1, 5]: 100 µg/mL | A PISI IC50 [2, 5]: 91 µg/mL | A PISI MIC [2, 5]: 200 µg/mL

Ac-KARHGSCNYVFP-NH2 [compound 119]
IC50 [1, 3]: 37 µg/mL | MIC [1, 4]: 50 µg/mL | F CULMORUM IC50 [1]: 33 µg/mL | F CULMORUM MIC [1, 5]: 50 µg/mL | A PISI IC50 [2, 5]: 66 µg/mL | A PISI MIC [2, 5]: 100 µg/mL
